Entries after “also recorded” stand apart in the source; their conditions may differ. Square brackets hold non-standard residues; d marks the D form. Ends that are not written are not given here. dOrn = NCCC[C@@H](N)C(=O)O

One test has as its system microorganisms (e.g., bacteria, yeasts, fungi). In words: Targeting peptide binding to target microorganisms (Table 3). Conditions: data not shown.
As to DAANEA [BL-1], the bacterial binding entry is “no bacterial binding”.

Staying with this test, now noted: microorganism the targeting peptide binds; binding in aqueous buffers varied by peptide solubility, preferably 1x PBS.
As to “1T-289 (EPSADIYLSAKDTKT; Peptide with targeting and/or antimicrobial activity) [Peptide 1T-289]”, the “Target(s)” value is recorded as “F. nucleatum; also recorded: P. gingivalis; also recorded: S. gordonii; also recorded: S. mitis; also recorded: S. mutans; also recorded: S. oralis; also recorded: S. sanguinis”.

“1T-291 (DMKIIKLYIKILSFLFIKYCNKKLNSVKLKA; Peptide with targeting and/or antimicrobial activity) [Peptide 1T-291]”: the “Target(s)” value is given as “A. naeslundii; also recorded: F. nucleatum; also recorded: P. gingivalis; also recorded: T. denticola; also recorded: S. mitis; also recorded: S. mutans; also recorded: S. oralis”.

For “1T-294 (YDKIADGVFKIGKRGVL; Peptide with targeting and/or antimicrobial activity) [Peptide 1T-294]”, the “Target(s)” value is listed as “T. denticola”.

“1T-295 (KYKLKKIIL; Peptide with targeting and/or antimicrobial activity) [Peptide 1T-295]”: the “Target(s)” value was “S. mitis; also recorded: S. salivarious; also recorded: S. sanguinis”.

As to “1T-297 (RSLRLNNALTKLPKLWYNRIKEAFYAYNDYDK; Peptide with targeting and/or antimicrobial activity) [Peptide 1T-297]”, the “Target(s)” value is listed as “A. naeslundii; also recorded: F. nucleatum; also recorded: T. denticola; also recorded: S. mitis; also recorded: S. mutans; also recorded: S. oralis”.

Consider “1T-301 (SKLPRVLDASLKL; Peptide with targeting and/or antimicrobial activity) [Peptide 1T-301]”, for which the “Target(s)” value is “F. nucleatum; also recorded: S. gordonii; also recorded: S. sanguinis”.

For “1T-304 (STAGEASRRTASEASRRTAAKLRG; Peptide with targeting and/or antimicrobial activity) [Peptide 1T-304]”, the “Target(s)” value is “P. gingivalis”.

On to “CHA0 (D[dOrn]KTAA[dOrn]K; not fully specified (bridges))”, for which the “Target(s)” value is listed as “P. fluorescens”.

On to “PF-014 (HPTDNKHN; Peptide with targeting and/or antimicrobial activity)”, for which the “Target(s)” value is “E. coli; also recorded: C. jeikeium”.

For “PF-016 (RKQYDDLSFNFLY; Peptide with targeting and/or antimicrobial activity)”, the “Target(s)” value is listed as “S. epidermidis; also recorded: E. faecalis; also recorded: C. jeikeium”.

“PF-018 (YYKTYFKEV; Peptide with targeting and/or antimicrobial activity)”: the “Target(s)” value was “E. coli; also recorded: C. jeikeium”.

“PF-038 (MAYKDEGKETKFAVKGYKD; Peptide with targeting and/or antimicrobial activity)”: the “Target(s)” value is reported as “M. luteus”.

On to “PF-039 (MLEEKNKSL; Peptide with targeting and/or antimicrobial activity)”, for which the “Target(s)” value is “P. mirabilis; also recorded: C. jeikeium”.

Consider “PF-044 (KLKKYIHKPD; Peptide with targeting and/or antimicrobial activity)”, for which the “Target(s)” value is “S. epidermidis and M. luteus and MRSA and C. jeikeium”.

For “PF-047 (NQEPSLQQDKEQKDNKG; Peptide with targeting and/or antimicrobial activity)”, the “Target(s)” value is on record as “S. mutans”.

As for “PF-050 (SYYLKRREEKGK; Peptide with targeting and/or antimicrobial activity)”, the “Target(s)” value was “S. epidermidis; also recorded: M. luteus; also recorded: E. coli; also recorded: C. jeikeium”.

Consider “PF-054 (VSISRFIGGGHVFNGNNKRNL; Peptide with targeting and/or antimicrobial activity)”, for which the “Target(s)” value is reported as “S. epidermidis; also recorded: E. coli”.

Take “PF-055 (GHVFNGNNKRNL; Peptide with targeting and/or antimicrobial activity)”: the “Target(s)” value was “S. mutans”.

For “PF-060 (HSSHL; Peptide with targeting and/or antimicrobial activity)”, the “Target(s)” value is “E. coli; also recorded: C. albicans; also recorded: C. jeikeium”.

“PF-062 (MKKKRINNDILGRMIYSSSIDKRNLYNLKYYE; Peptide with targeting and/or antimicrobial activity)”: the “Target(s)” value is “S. epidermidis and M. luteus and E. coli and P. aeruginosa and MRSA and S. pneumoniae and E. faecalis and C. jeikeium”.

The test is the same for the next values; noted with them: microorganism(s) the targeting peptide binds; binding in aqueous buffers depending on peptide solubility, preferably 1x PBS.
As for AIEGVIKKGACFKLLRHEMF [PF-167], the “Target(s)” value was “S. epidermidis and E. coli and C. albicans and MRSA and C. jeikeium and C. jejuni”.

Consider “HIKETR (Peptide with targeting and/or antimicrobial activity) [PF-222]”, for which the “Target(s)” value is on record as “S. epidermidis”.

For the substance “MKKLVAALAVIVILTGCVYDPVNYDKIHDQEFQDHLRQNG [PF-252]”, the “Target(s)” value was “S. mutans”.

MLTSRKKRLKKIVEEQNKKDESI [PF-336]: the “Target(s)” value is “S. mutans; also recorded: E. coli”.

On to “PF-097 (QPTQGEQGTRPRRPTPMRGLLI; Peptide with targeting and/or antimicrobial activity)”, for which the “Target(s)” value is on record as “C. jeikeium”.

As to “PF-101 (DPVPERQEQACACHRTAKPGK; Peptide with targeting and/or antimicrobial activity)”, the “Target(s)” value is reported as “S. mutans”.

With “PF-104 (ERTAVNDLWI; Peptide with targeting and/or antimicrobial activity)”, the “Target(s)” value was “MRSA and C. jeikeium”.

For the substance “PF-130 (LQRSDEESMPRRHEKYS; Peptide with targeting and/or antimicrobial activity)”, the “Target(s)” value was “E. faecalis; also recorded: C. jeikeium; also recorded: C. jejuni”.

Consider “PF-131 (RRAAARTKGNRR; Peptide with targeting and/or antimicrobial activity)”, for which the “Target(s)” value is “S. epidermidis and E. coli and MRSA and C. jeikeium”.

For the substance “PF-132 (RPGDGAAEQGRSR; Peptide with targeting and/or antimicrobial activity)”, the “Target(s)” value was “S. epidermidis; also recorded: C. jeikeium”.

Consider “PF-134 (GKAMKRQDCSAL; Peptide with targeting and/or antimicrobial activity)”, for which the “Target(s)” value is on record as “S. epidermidis; also recorded: C. jeikeium”.

On to “PF-138 (AVHHSLLFR; Peptide with targeting and/or antimicrobial activity)”, for which the “Target(s)” value was “S. epidermidis and M. luteus and P. mirabilis and E. coli and C. albicans and MRSA and C. jeikeium and C. jejuni”.

As for “PF-141 (VVRRFQGM; Peptide with targeting and/or antimicrobial activity)”, the “Target(s)” value was “S. epidermidis and M. luteus and C. albicans and MRSA and C. jeikeium”.

Turning to “PF-142 (GIDRGCQAAR; Peptide with targeting and/or antimicrobial activity)”, the “Target(s)” value is “S. mutans”.

Staying with this test, now noted: peptide binding in aqueous buffers varied by peptide solubility; preferably 1x PBS.
As for PEIIKIVSGLL [PF-758], the “Target(s) (microorganisms bound by the targeting peptide)” value was “S. epidermidis and M. luteus and E. coli and MRSA and S. pneumoniae and E. faecalis and C. jeikeium”.

Regarding “PF670 (TVIVAPMHSGV; Peptide with targeting and/or antimicrobial activity)”, the “Target(s) (microorganisms bound by the targeting peptide)” value is reported as “Mycobacteria spp”.
